Assay results published in US9540702B2, “Stabilization of enzymes with stable coenzymes” (Roche Diabetes Care, Inc., priority 2009, dated 2017).

Legend:
[1] = system: diaphorase; test: Diaphorase activity extracted from blood glucose test strips after storage; type: biochemical; conditions: blood glucose test strips stored at 32° C. and 30-70% relative air humidity
Method: A composition which, among others, contained glucose dehydrogenase (GlucDH), carbaNAD, diaphorase, nitrosoaniline and phosphomolybdic acid was used to determine blood glucose. Test strips were obtained by applying a first formulation to a polycarbonate foil using a doctor blade (layer height 100 μm), drying the first layer, applying a second formulation to the first layer (doctor blade gap 30 μm), and drying the second layer. The test strips were stored at 32° C. and 30-70% relative air humidity.

[2] = system: L-lactate dehydrogenase (porcine); test: DSC of coenzyme binding; conditions: 3.8 mM ligand; 0.1 M Tris buffer, pH 8.5
[3] = target: T1, alcohol dehydrogenase (ADH) (Saccharomyces cerevisiae, UniProt P00330); test: Storage of alcohol dehydrogenase detection solution with NAD or cNAD (Tables 1 and 2); type: biochemical, yeast
T1 sequence (P00330 1-348): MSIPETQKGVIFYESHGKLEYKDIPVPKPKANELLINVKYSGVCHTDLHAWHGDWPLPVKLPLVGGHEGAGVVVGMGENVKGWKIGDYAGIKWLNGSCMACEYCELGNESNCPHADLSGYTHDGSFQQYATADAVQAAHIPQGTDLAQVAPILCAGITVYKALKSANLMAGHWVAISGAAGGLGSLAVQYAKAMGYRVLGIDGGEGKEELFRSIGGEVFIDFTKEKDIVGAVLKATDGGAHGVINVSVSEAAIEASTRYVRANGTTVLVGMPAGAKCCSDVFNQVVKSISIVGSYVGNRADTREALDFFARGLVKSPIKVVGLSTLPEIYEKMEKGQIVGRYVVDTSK
Method: cNAD or NAD was added to a detection solution containing alcohol dehydrogenase. These mixtures were stored at 2-8° C. and at 35° C. Subsequently, the stability of alcohol dehydrogenase (ADH) was checked at regular intervals and the residual activity of the enzyme was determined.
If alcohol dehydrogenase is stored together with native NAD or with cNAD for several months at 2-8° C. in a refrigerator, then one observes in the case of […] a considerable decrease in enzyme activity over the entire storage period. Whereas the difference after 2 weeks storage is still slight, there is an approximately 20% higher residual activity of alcohol dehydrogenase after 12 months storage in the presence of 16 mM cNAD compared to a corresponding solution containing 16 mM NAD as the coenzyme.
Accordingly, the residual activity of alcohol dehydrogenase can be increased somewhat in samples that have been stored for 2 weeks at 2-8° C. by increasing the concentration of cNAD.

[4] = 16 mmol/l coenzyme, initial value

`NC(=O)c1ccc[n+]([C@@H]2C[C@H](COP(=O)([O-])OP(=O)(O)OC[C@H]3O[C@@H](n4cnc5c(N)ncnc54)[C@H](O)[C@@H]3O)[C@@H](O)[C@H]2O)c1` [carbaNAD] was tested, and the “residual activity of diaphorase compared to formulation containing NAD” value [1] was “considerably increased residual activity”, the TM [2] was 61.5 °C and the ΔHcal [2] was 82 kcal/mol. The “ADH activity after 2 weeks at 2-8° C.” value ([3]; 16 mmol/l coenzyme, 2 weeks at 2-8° C.) was 100.7 % of initial value, the “ADH activity after 3 months at 2-8° C.” value ([3]; 16 mmol/l coenzyme, 3 months at 2-8° C.) was 91.3 % of initial value and the “ADH activity after 7.5 months at 2-8° C.” value ([3]; 16 mmol/l coenzyme, 7.5 months at 2-8° C.) was 95.6 % of initial value. For the same compound, the “ADH activity after 10 months at 2-8° C.” value ([3]; 16 mmol/l coenzyme, 10 months at 2-8° C.) was 88.2 % of initial value, the “ADH activity after 12 months at 2-8° C.” value ([3]; 16 mmol/l coenzyme, 12 months at 2-8° C.) was 83.8 % of initial value and the “ADH activity % of weighed amount (initial value)” value (“ADH activity % of weighed amount” for short) [3, 4] was 71.9 % of weighed amount. The “ADH activity U/ml (initial value)” value [3, 4] was 120.2 U/ml, the “higher residual activity of alcohol dehydrogenase compared to 0.5 mM cNAD” value ([3]; 2 weeks at 35° C., 15 mM cNAD) was “approximately 45%” and the “higher residual activity of alcohol dehydrogenase compared to 16 mM NAD solution” value ([3]; 12 months at 2-8° C., 16 mM cNAD) was “approximately 20%”. The “ADH activity % of weighed amount” value ([3]; Sample 1, pH 7.85, 0.5 mM cNAD) was 73.7 % of weighed amount, the “ADH activity U/ml (initial value)” value ([3]; Sample 1, pH 7.85, 0.5 mM cNAD) was 123.1 U/ml and the “ADH activity after 2 weeks at 2-8° C.” value ([3]; Sample 1, pH 7.85, 0.5 mM cNAD) was 93.8 % of initial value. For the same compound, the “ADH activity after 2 weeks at 35° C.” value ([3]; Sample 1, pH 7.85, 0.5 mM cNAD) was 31.1 % of initial value, the “ADH activity % of weighed amount” value ([3]; Sample 2, pH 7.85, 1 mM cNAD) was 75.3 % of weighed amount and the “ADH activity U/ml (initial value)” value ([3]; Sample 2, pH 7.85, 1 mM cNAD) was 125.8 U/ml. The “ADH activity after 2 weeks at 2-8° C.” value ([3]; Sample 2, pH 7.85, 1 mM cNAD) was 97.7 % of initial value, the “ADH activity after 2 weeks at 35° C.” value ([3]; Sample 2, pH 7.85, 1 mM cNAD) was 45.5 % of initial value and the “ADH activity % of weighed amount” value ([3]; Sample 3, pH 7.85, 5 mM cNAD) was 74.9 % of weighed amount. The “ADH activity U/ml (initial value)” value ([3]; Sample 3, pH 7.85, 5 mM cNAD) was 125.1 U/ml, the “ADH activity after 2 weeks at 2-8° C.” value ([3]; Sample 3, pH 7.85, 5 mM cNAD) was 101.1 % of initial value and the “ADH activity after 2 weeks at 35° C.” value ([3]; Sample 3, pH 7.85, 5 mM cNAD) was 74.1 % of initial value. For the same compound, the “ADH activity % of weighed amount” value ([3]; Sample 4, pH 7.85, 15 mM cNAD) was 74.1 % of weighed amount, the “ADH activity U/ml (initial value)” value ([3]; Sample 4, pH 7.85, 15 mM cNAD) was 123.7 U/ml and the “ADH activity after 2 weeks at 2-8° C.” value ([3]; Sample 4, pH 7.85, 15 mM cNAD) was 104.0 % of initial value. The “ADH activity after 2 weeks at 35° C.” value ([3]; Sample 4, pH 7.85, 15 mM cNAD) was 77.6 % of initial value.
